Reference: patent US8575106B2, “Cosmetic uses of modified stressed yeast extracts and related compositions” (Avon Products, Inc., priority 2009, dated 2013)

Legend:
[1] = tested on: B16 melanoma cells; assay: Calcium influx into B16 melanoma cells (Fluo-4 NW Calcium Assay, Thapsigargin-stimulated); assay type: cell-based, mouse; conditions: 100 μM 2-APB, area under curve of calcium influx peak vs vehicle control
Procedure: Modified yeast peptide fractions comprising a zinc-complexed peptide comprising SEQ ID NO:1 were tested in vitro for the ability to inhibit calcium influx into pigment-producing cells. An experiment was designed to measure intracellular calcium in B16 melanoma cells using Fluo-4 NW Calcium Assay Kits (Invitrogen) as per manufacturer's instructions. B16 mouse melanoma cell lines (ATCC, cat. #: CRL-6475) were grown in 96-well tissue culture treated dishes in growth medium. Prior to calcium treatment, growth medium from the B16 cell cultures was removed and 100 μL of the dye loading solution was added quickly to each well of a 96-well plate. Plates were incubated at 37° C. for 30 minutes, then at room temperature for an additional 30 minutes. Dye buffer was removed and plates were washed once with 1×PBS and replaced with an assay buffer that contains calcium (and was formed according to the manufacturer's directions) along with a test compound. […]
Fluorescence was measured using a micro-plate reader at excitation/emission wavelengths of 485 nm/530 nm, respectively. The reader was set to read florescence every 30 seconds for a period of 5 minutes. […] The fluorescence micro-plate reader was set to take fluorescence measurements every 30 seconds for a period of 30 minutes, again at excitation/emission wavelengths of 485 nm/530 nm, respectively. […]

[2] = tested on: B16 mouse melanoma cell lines; assay: Melanin synthesis in B16 cells, normalized to cell viability (MTT); assay type: cell-based; conditions: 100 μM 2-APB, 7 days, relative to control
Procedure: Next, the effects of 2-APB and modified peptide fractions having a zinc-complexed peptide comprising SEQ ID NO:1 on melanin synthesis were examined in B16 cells. B16 mouse melanoma cell lines (ATCC, cat. #: CRL-6475) were grown in 96-well tissue culture treated dishes (Falcon) and treated with a test compound to determine its ability to modulate pigment formation (melanin synthesis). Specifically, cells were exposed to 100 μM 2-APB or modified yeast peptide fractions comprising different concentrations of zinc-complexed peptide comprising SEQ ID NO:1, including 1% and 0.1% zinc-complexed peptide, for seven (7) days. Following the treatment period, the level of melanin synthesized was quantified using a Packard micro-plate reader at 540 nm.
After quantifying the amount of melanin synthesized, cell viability was determined using the MTT conversion method. […] After melanin synthesis quantification, the cultures were exposed to MTT dye solution with a concentration of 1 mg/ml for three hours. […] MTT dye uptake and conversion by viable cells was determined by measuring the extracted formazan at 570 nm using a Packard micro-plate reader.
After normalizing to cell viability, total pigmentation then was calculated, and expressed as a percent activity of control. […]

## NCCOB(c1ccccc1)c1ccccc1 [2-APB, 2-aminoethyl diphenylborate]
[1]
  inhibition of calcium entry into the cells: 86%
[2]
  inhibition of melanin synthesis: 77%
